Values quoted from earlier work as cited in patent US7803786B2, “Pharmaceutical co-crystal compositions and related methods of use” (Transform Pharmaceuticals, Inc., priority 2004, dated 2010).

Columns and labels:
[1] = Cambridge Structural Database (piracetam), Merck Index (gentisic acid)
[2] = co-crystal former; multiple values for multiple functionalities

known polymorphism of the free form [1] | pKa Values [2] | SMILES
Three polymorphs | – | NC(=O)CN1CCCC1=O [piracetam]
dimorphic | – | O=C(O)c1cc(O)ccc1O [gentisic acid]
– | 3.76 | O=C(O)C(O)C(O)C(O)C(O)CO (stereo not drawn) [Gluconic acid]
